Here are results for 16 compounds from US12371430B2, “5-morpholin-4-yl-pyrazolo[4,3-b]pyridine derivatives” (Merck Patent GmbH, priority 2018, dated 2025).

Each structure is given as a SMILES string.

One series addresses ATR/ATRIP (Homo sapiens (Human), UniProt Q13535). Nature of the series: ATR/ATRIP kinase assay (TR-FRET, p53 Ser15 phosphorylation). Format: biochemical. The conditions noted are these: 0.5 μM ATP, 50 nM p53. The procedure, abridged:
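Full-length human ATR/ATRIP co-expressed in mammalian cells (typically 0.3 nM) preincubated with compound 15 min at 22° C, then 50 nM cmyc-p53 and 0.5 μM ATP added for typically 25 min; HEPES pH 8.0 with Mg2+/Mn2+. p53 Ser15 phosphorylation read by HTRF (665/615 ratio); IC50 by nonlinear regression.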
On the technique in general: In TR-FRET formats the signal depends on donor and acceptor labels being close together.

In series [1] the test system is phosphorylation of Chk1 (Ser 345) in HT29 colon adenocarcinoma cells. The series can be described thus: pCHK1 cellular assay. It is filed as cell-based. The conditions noted are these: Homo sapiens, HT-29, hydroxyurea 3 mM, 4 h. The procedure, abridged:
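HT29 cells plated ≥20 h, then compound (1 nM–30 μM final) with hydroxyurea (3 mM final) added together for 4 h at 37 °C. After MeOH/Triton fixation-permeabilisation, anti-pChk1 immunostaining plus nuclear stain; nuclear pChk1 imaged by confocal high content reader, reported as % positive nuclei.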

Series [2] concerns the target Kv11.1 (hERG) ion channel (Homo sapiens (Human), UniProt Q12809). Nature of the series: Kv11.1 (hERG) ion channel activity, whole cell patch clamp in HEK293. Format: cell-based. Particulars: for Ki: heading: hERG Ki, HEK293 cells stably expressing hERG, patch clamp. Here is the method: Kv11.1 (hERG) Ion Channel Activity
In this assay, a potential in vitro effect of test compounds on the Kv11.1 (hERG) ion channel current is investigated which mediates the rapidly activating, delayed rectifier cardiac potassium current (IKr). The assay is performed with a stable Kv11.1 (hERG) transfected human embryonic kidney cell line (HEK293) by whole cell patch clamp technique carried out at room temperature.
The Kv11.1 (hERG) ion channel blocker quinidine is used as reference compound. The effects of the test compounds and quinidine are normalized to the corresponding vehicle control. The whole cell recordings are carried out with an automated patch clamp device Patchliner™, Nanion Technologies, Munich). Hereby the Patch Clamp measurements run on silicate-coated chips with a hole of a defined diameter. Solutions, cell suspension and compounds are applied by a Teflon-laminated pipette needle through microfluidic silicate-laminated channels. Commercial patch clamp amplifiers (EPC10, HEKA Elektronik Dr. Schulze GmbH, Germany) are used for the patch clamp recordings. HEK293 cells stably expressing the hERG gene are held at −80 mV. Steady-state inhibition of Kv11.1 (hERG) potassium current due to test/reference compound application is measured using a pulse pattern with fixed amplitudes: 51 ms/−80 mV, 500 ms/+40 mV, 500 ms/−40 mV, 200 ms/−80 mV. The hERG-specific voltage protocol is repeated at 10 s intervals. The leak current is subtracted by a P4 leak subtraction. Cells are resuspended in extracellular patch clamp solution (EC) and applied into the chip. After trapping the cell, the EC is exchanged by seal enhancer solution (SE) to improve the sealing procedure. When the whole cell configuration is attained, seal enhancer is washed out by the application of EC. The recording is started in EC for 1.5 min. Afterwards DMSO (vehicle control, 0.1% DMSO) is applied and the control current is measured for 3 min. Following control steady-state current, test compound is applied twice at the same concentration and the tail current is measured for 3.5 min each. For the determination of a concentration-relationship, the test compound is applied as a cumulative concentration-response curve and each concentration is measured for 5 min. The reference compound quinidine is treated in the same way. The effect on Kv11.1 (hERG) ion channel activity is judged from the tail current amplitude monitored at −40 mV (current of interest, COI). Results are calculated from the last recorded current traces. Changes in Kv11.1 (hERG) ion channel activity between control value, defined as 100% Kv11.1 (hERG) ion channel activity, application of test compound and application of quinidine is reported as percent change of control value of COI. An aliquot of test compound is collected for concentration verification during the recording. The sample is immediately measured by HPLC and the final compound concentration within the assay is calculated according to a calibration curve.
In general terms: The hERG channel carries a current that helps repolarise heart muscle cells.

Sequence of ATR/ATRIP (Q13535 whole entry): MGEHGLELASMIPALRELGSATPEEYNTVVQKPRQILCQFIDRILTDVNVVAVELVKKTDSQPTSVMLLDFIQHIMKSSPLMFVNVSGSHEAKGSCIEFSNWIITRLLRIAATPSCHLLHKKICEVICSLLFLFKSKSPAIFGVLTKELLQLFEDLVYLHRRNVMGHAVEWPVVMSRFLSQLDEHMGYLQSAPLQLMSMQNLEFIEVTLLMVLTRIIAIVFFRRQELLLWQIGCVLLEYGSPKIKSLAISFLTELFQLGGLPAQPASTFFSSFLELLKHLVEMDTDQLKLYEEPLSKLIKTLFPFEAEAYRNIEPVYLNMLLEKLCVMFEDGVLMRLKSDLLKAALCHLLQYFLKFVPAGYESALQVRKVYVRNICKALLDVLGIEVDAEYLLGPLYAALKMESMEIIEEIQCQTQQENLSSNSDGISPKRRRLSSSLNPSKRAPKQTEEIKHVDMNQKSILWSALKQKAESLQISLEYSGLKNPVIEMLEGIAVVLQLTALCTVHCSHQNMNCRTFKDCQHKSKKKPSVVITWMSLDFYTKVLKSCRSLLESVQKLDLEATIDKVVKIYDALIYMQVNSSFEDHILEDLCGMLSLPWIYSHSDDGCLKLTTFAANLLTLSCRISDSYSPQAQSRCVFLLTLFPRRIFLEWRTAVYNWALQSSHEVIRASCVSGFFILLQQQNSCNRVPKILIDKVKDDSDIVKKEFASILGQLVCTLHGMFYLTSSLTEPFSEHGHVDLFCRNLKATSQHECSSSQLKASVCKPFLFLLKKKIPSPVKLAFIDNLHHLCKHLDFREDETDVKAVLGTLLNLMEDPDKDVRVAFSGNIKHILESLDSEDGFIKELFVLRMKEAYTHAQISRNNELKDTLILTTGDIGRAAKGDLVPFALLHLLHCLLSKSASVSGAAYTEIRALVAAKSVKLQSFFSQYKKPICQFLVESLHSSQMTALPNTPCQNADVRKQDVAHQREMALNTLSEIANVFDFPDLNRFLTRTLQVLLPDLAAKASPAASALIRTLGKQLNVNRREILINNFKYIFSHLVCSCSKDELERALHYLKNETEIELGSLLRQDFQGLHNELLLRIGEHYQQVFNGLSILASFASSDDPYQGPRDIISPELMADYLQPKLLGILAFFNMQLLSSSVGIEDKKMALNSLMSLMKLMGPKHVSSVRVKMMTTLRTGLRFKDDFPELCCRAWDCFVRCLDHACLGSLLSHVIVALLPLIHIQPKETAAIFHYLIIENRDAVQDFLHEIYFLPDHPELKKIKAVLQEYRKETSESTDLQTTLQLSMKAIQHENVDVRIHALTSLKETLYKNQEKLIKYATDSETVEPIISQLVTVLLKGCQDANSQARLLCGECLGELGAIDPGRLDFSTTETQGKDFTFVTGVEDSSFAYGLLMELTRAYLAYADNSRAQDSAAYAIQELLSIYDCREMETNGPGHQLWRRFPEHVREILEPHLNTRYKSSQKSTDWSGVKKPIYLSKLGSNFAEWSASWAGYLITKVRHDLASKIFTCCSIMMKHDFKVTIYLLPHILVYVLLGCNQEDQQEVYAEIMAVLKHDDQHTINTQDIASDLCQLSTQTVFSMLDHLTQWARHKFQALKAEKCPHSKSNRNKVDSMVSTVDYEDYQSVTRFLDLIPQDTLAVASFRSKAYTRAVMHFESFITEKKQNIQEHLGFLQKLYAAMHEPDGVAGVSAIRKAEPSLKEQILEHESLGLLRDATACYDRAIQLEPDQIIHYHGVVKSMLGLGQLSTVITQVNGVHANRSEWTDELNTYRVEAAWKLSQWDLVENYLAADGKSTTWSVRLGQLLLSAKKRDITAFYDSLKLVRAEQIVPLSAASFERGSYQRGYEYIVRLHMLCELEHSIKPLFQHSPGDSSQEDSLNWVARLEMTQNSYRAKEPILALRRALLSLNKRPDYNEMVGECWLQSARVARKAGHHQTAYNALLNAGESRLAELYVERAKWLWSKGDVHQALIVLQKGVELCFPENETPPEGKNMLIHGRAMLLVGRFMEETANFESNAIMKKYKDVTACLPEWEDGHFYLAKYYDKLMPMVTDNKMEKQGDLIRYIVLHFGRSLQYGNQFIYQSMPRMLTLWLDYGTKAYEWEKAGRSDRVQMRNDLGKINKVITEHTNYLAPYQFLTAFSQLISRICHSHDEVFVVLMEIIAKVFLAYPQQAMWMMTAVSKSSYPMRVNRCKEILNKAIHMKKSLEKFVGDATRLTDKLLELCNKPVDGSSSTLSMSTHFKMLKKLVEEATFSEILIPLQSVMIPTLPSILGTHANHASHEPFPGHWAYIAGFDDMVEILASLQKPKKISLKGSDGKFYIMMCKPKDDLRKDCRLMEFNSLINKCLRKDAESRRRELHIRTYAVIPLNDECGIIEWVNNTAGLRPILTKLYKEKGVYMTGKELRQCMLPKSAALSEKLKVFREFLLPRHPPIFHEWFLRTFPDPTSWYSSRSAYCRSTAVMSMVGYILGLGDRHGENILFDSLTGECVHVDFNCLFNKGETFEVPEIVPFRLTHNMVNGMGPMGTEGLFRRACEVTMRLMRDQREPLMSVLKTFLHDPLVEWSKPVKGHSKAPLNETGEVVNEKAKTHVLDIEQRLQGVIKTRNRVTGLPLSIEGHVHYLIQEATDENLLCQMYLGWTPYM
Sequence of ATR/ATRIP (Q8WXE1 whole entry partner): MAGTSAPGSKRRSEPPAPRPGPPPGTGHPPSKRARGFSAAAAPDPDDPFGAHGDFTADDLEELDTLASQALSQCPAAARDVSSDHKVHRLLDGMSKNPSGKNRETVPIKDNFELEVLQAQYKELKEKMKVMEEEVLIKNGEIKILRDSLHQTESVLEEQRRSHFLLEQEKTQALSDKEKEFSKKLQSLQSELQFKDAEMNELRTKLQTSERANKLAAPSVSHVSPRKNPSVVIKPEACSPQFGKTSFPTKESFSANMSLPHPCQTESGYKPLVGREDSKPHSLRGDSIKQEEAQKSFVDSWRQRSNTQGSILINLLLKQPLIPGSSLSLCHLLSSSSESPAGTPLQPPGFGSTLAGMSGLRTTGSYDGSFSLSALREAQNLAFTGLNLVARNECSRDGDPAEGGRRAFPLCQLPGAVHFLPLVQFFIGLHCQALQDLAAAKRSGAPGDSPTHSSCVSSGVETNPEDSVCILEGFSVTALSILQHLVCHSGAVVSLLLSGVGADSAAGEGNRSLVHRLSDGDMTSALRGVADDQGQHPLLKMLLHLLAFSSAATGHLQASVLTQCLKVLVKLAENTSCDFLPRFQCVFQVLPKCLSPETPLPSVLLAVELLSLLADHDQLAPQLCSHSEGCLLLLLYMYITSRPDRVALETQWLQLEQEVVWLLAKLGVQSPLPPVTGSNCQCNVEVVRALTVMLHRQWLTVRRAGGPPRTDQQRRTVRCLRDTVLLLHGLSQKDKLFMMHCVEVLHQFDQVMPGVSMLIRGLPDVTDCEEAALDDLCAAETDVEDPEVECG
Sequence of Kv11.1 (hERG) ion channel (Q12809 whole entry): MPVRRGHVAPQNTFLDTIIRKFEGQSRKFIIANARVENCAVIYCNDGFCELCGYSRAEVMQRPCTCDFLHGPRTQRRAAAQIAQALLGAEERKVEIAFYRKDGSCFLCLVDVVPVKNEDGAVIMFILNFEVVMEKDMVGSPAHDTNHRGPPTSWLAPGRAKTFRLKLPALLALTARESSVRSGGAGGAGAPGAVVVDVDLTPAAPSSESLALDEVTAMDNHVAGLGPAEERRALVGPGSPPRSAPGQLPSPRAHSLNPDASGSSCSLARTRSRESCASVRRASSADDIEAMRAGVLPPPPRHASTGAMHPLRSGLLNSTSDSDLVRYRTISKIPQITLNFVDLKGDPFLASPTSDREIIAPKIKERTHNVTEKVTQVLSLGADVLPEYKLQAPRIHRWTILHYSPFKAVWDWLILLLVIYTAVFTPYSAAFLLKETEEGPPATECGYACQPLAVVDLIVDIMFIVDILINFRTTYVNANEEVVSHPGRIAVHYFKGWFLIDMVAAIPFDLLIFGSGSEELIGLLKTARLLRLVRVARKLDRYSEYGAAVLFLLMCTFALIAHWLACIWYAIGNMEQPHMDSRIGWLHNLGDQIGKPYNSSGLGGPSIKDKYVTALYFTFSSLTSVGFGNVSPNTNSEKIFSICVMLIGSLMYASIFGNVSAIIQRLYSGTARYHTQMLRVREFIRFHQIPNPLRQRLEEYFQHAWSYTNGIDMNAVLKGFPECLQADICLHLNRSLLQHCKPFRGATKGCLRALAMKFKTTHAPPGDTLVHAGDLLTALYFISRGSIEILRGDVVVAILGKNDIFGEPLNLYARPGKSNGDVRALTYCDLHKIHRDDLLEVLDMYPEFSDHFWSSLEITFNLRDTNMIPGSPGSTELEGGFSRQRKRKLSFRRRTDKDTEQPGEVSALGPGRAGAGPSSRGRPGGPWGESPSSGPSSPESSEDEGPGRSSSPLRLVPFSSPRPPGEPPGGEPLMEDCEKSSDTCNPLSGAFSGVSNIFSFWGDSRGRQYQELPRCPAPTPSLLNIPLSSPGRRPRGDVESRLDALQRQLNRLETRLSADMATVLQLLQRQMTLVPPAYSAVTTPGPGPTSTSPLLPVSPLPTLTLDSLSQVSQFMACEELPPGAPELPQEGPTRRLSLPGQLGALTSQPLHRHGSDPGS

One may read the IC50 as the midpoint of a concentration-inhibition curve. Read a high IC50 as weaker potency in that assay. A word on the Ki: it is a measure of affinity in units of concentration, obtained from inhibition or displacement. Consider `C[C@@H]1COCCN1c1cc(-c2ccncc2F)c2c(n1)c(-c1cc[nH]n1)nn2C` [Compound 20, 7-(3-Fluoro-pyridin-4-yl)-1-methyl-5-((R)-3-methyl-morpholin-4-yl)-3-(1H-pyrazol-3-yl)-1H-pyrazolo[4,3-b]pyridine], for which the IC50 at ATR/ATRIP was 1.2 nM; in series [1] it was 10 to 100 nM. The “hERG % effect @ conc” value in series [2] (@ 10 μM) is −11%. The compound further gave an inhibitory constant (Ki) in series [2] of more than 10000 nM.

With `C[C@@H]1COCCN1c1cc(C(C)(C)O)c2c(n1)c(-c1cc[nH]n1)nn2C` [Compound 25, 2-[1-Methyl-5-((R)-3-methyl-morpholin-4-yl)-3-(1H-pyrazol-3-yl)-1H-pyrazolo[4,3-b]pyridin-7-yl]-propan-2-ol], the concentration for half-maximal inhibition (IC50) against ATR/ATRIP was 4.3 nM; in series [1], 10 to 100 nM. Besides, the “hERG % effect @ conc” value in series [2] (@ 10 μM) is −1%. Besides, the Ki in series [2] was more than 10000 nM.

With `C[C@@H]1COCCN1c1cc(C2(S(C)(=O)=O)CC2)c2c(n1)c(-c1cc[nH]n1)nn2C` [Compound 26, 7-(1-Methanesulfonyl-cyclopropyl)-1-methyl-5-((R)-3-methyl-morpholin-4-yl)-3-(1H-pyrazol-3-yl)-1H-pyrazolo[4,3-b]pyridine], the results for the IC50 (against ATR/ATRIP; in series [1]) were 0.8 nM and 10 to 100 nM, respectively. Further, the “hERG % effect @ conc” value in series [2] (@ 30 μM) was −24%. The compound further came in with an inhibitory constant (Ki) in series [2] of more than 30000 nM.

Turning to `C[C@@H]1COCCN1c1cc(-c2ccn(CCF)n2)c2c(n1)c(-c1cc[nH]n1)nn2C` [Compound 34, 7-[1-(2-Fluoro-ethyl)-1H-pyrazol-3-yl]-1-methyl-5-((R)-3-methyl-morpholin-4-yl)-3-(1H-pyrazol-3-yl)-1H-pyrazolo[4,3-b]pyridine], the half-inhibitory concentration (IC50) at ATR/ATRIP is 6.1 nM; in series [1] it was 10 to 100 nM. Moreover, the “hERG % effect @ conc” value in series [2] (@ 10 μM) is listed as −1%. The Ki in series [2] was more than 10000 nM.

Regarding `Cc1ccccc1-c1cc(N2CCOC[C@H]2C)nc2c(-c3cc[nH]n3)n[nH]c12` [Compound 35, (3R)-3-Methyl-4-[7-(2-methylphenyl)-3-(1H-pyrazol-3-yl)-1H-pyrazolo[4,3-b]pyridin-5-yl]morpholine], the values for the IC50 (against ATR/ATRIP; in series [1]) were 0.5 nM and 10 to 100 nM, respectively. In series [2] (@ 10 μM), the “hERG % effect @ conc” value is −23%. The inhibition constant Ki in series [2] is more than 10000 nM.

For the compound `C[C@@H]1COCCN1c1cc(-c2ccnn2CCF)c2c(n1)c(-c1cc[nH]n1)nn2C` [Compound 36, 7-[2-(2-Fluoro-ethyl)-2H-pyrazol-3-yl]-1-methyl-5-((R)-3-methyl-morpholin-4-yl)-3-(1H-pyrazol-3-yl)-1H-pyrazolo[4,3-b]pyridine], the concentration for half-maximal inhibition (IC50) was 0.6 nM at ATR/ATRIP and 10 to 100 nM in series [1]. Besides, the “hERG % effect @ conc” value in series [2] (@ 10 μM) is listed as −9%. The Ki in series [2] was more than 10000 nM.

As to `C[C@@H]1COCCN1c1ccc2c(n1)c(-c1ccn[nH]1)nn2C` [Compound 40, (3R)-3-Methyl-4-[1-methyl-3-(1H-pyrazol-5-yl)-1H-pyrazolo[4,3-b]pyridin-5-yl]morpholine], the results for the half-maximal inhibitory concentration (IC50) (against ATR/ATRIP; in series [1]) were 50.6 nM and 100 to 1000 nM, respectively. Moreover, the “hERG % effect @ conc” value in series [2] (@ 10 μM) came to 9%. For the same compound, the inhibitory constant (Ki) in series [2] was more than 10000 nM.

Regarding `C[C@@H]1COCCN1c1cc(-c2cncn2C)c2c(n1)c(-c1cc[nH]n1)nn2C` [Compound 42, 1-Methyl-7-(3-methyl-3H-imidazol-4-yl)-5-((R)-3-methyl-morpholin-4-yl)-3-(1H-pyrazol-3-yl)-1H-pyrazolo[4,3-b]pyridine], the values for the IC50 (at ATR/ATRIP; in series [1]) were 0.3 nM and less than 10 nM, respectively. In series [2] (@ 30 μM), the “hERG % effect @ conc” value is listed as −26%. The same compound came in with an inhibitory constant (Ki) in series [2] of more than 30000 nM.

In the case of `C[C@@H]1COCCN1c1cc(-c2cccc(C#N)c2)c2c(n1)c(-c1cc[nH]n1)nn2C` [Compound 48, 3-{1-Methyl-5-[(3R)-3-methylmorpholin-4-yl]-3-(1H-pyrazol-3-yl)-1H-pyrazolo[4,3-b]pyridin-7-yl}benzonitrile], the IC50 is 2 nM against ATR/ATRIP and 10 to 100 nM in series [1]. Further, in series [2] (@ 10 μM), the “hERG % effect @ conc” value is −32%. In series [2], this compound showed a Ki of more than 10000 nM.

`Cc1ccccc1-c1cc(N2CCOC[C@H]2C)nc2c(-c3ccn[nH]3)nn(C)c12` [Compound 49, (3R)-3-Methyl-4-[1-methyl-7-(2-methylphenyl)-3-(1H-pyrazol-5-yl)-1H-pyrazolo[4,3-b]pyridin-5-yl]morpholine]: the IC50 was 1.8 nM against ATR/ATRIP and 10 to 100 nM in series [1]. The “hERG % effect @ conc” value in series [2] (@ 10 μM) is −18%. The same compound had an inhibition constant Ki in series [2] of more than 10000 nM.

In the case of `Cc1cc(S(C)(=O)=O)ccc1-c1cc(N2CCOC[C@H]2C)nc2c(-c3cc[nH]n3)nn(C)c12` [Compound 50, (3R)-4-[7-(4-Methanesulfonyl-2-methylphenyl)-1-methyl-3-(1H-pyrazol-3-yl)-1H-pyrazolo[4,3-b]pyridin-5-yl]-3-methylmorpholine], the IC50 was 1.3 nM at ATR/ATRIP and less than 10 nM in series [1]. Besides, the “hERG % effect @ conc” value in series [2] (@ 10 μM) was −17%. Also, the inhibition constant Ki in series [2] was more than 10000 nM.

`C[C@@H]1COCCN1c1cc(C2=CCOCC2)c2c(n1)c(-c1cc[nH]n1)nn2C` [Compound 54, (3R)-4-[7-(3,6-Dihydro-2H-pyran-4-yl)-1-methyl-3-(1H-pyrazol-3-yl)-1H-pyrazolo[4,3-b]pyridin-5-yl]-3-methylmorpholine]: the IC50 was 2.2 nM against ATR/ATRIP and 10 to 100 nM in series [1]. The “hERG % effect @ conc” value in series [2] (@ 10 μM) is −2%. The compound also displayed a Ki in series [2] of more than 10000 nM.

Consider `C[C@@H]1COCCN1c1cc(C2CCOCC2)c2c(n1)c(-c1ccn[nH]1)nn2C` [Compound 55, 1-Methyl-5-((R)-3-methyl-morpholin-4-yl)-3-(2H-pyrazol-3-yl)-7-(tetrahydro-pyran-4-yl)-1H-pyrazolo[4,3-b]pyridine], for which the IC50 against ATR/ATRIP was 0.7 nM; in series [1], 10 to 100 nM. Moreover, the “hERG % effect @ conc” value in series [2] (@ 10 μM) is −14%. Further, the Ki in series [2] was more than 10000 nM.

As to `C[C@@H]1COCCN1c1cc(-c2ccnn2C)c2c(n1)c(-c1cc[nH]n1)nn2C` [Compound 61, (3R)-3-Methyl-4-[1-methyl-7-(1-methyl-1H-pyrazol-5-yl)-3-(1H-pyrazol-3-yl)-1H-pyrazolo[4,3-b]pyridin-5-yl]morpholine], the IC50 was 0.6 nM on ATR/ATRIP and 10 to 100 nM in series [1]. The “hERG % effect @ conc” value in series [2] (@ 30 μM) is −12%. Besides, the Ki in series [2] was more than 30000 nM.

On to `C[C@@H]1COCCN1c1cc(C2CCCOC2)c2c(n1)c(-c1ccn[nH]1)nn2C` (stereo partly drawn) [Compound 67, 1-Methyl-5-((R)-3-methyl-morpholin-4-yl)-3-(2H-pyrazol-3-yl)-7-(tetrahydro-pyran-3-yl)-1H-pyrazolo[4,3-b]pyridine], for which the half-maximal inhibitory concentration (IC50) on ATR/ATRIP was 0.8 nM; in series [1] it was 10 to 100 nM. The “hERG % effect @ conc” value in series [2] (@ 10 μM) is −12%. Also, the Ki in series [2] is more than 10000 nM.

Consider `C[C@@H]1COCCN1c1cc(C2CCOC2)c2c(n1)c(-c1ccn[nH]1)nn2C` (stereo partly drawn) [Compound 70, 1-Methyl-5-((R)-3-methyl-morpholin-4-yl)-3-(2H-pyrazol-3-yl)-7-(tetrahydro-furan-3-yl)-1H-pyrazolo[4,3-b]pyridine], for which the figures for the IC50 (at ATR/ATRIP; in series [1]) were 2.2 nM and 10 to 100 nM, respectively. Moreover, the “hERG % effect @ conc” value in series [2] (@ 10 μM) is on record as −20%. For the same compound, the Ki in series [2] was more than 10000 nM.
